Legend:
[1] = test system: normal NK cells expanded with K562-aAPC; test: percent inhibition of viability; higher = more inhibition; details: 72 h, IL-2 2.5 ng/mL
Protocol: (§1)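 Drug sensitivity and resistance testing on K562-aAPC-expanded normal NK cells: 5 concentrations (10-fold steps over a 10,000-fold range), 72 h at 37 °C, viability by CellTiter-Glo normalised to DMSO and benzethonium chloride controls; DSS from the fitted curve.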

[2] = test system: DERL-7 (IL-2 2.5 ng/mL); test: as above; details: 72 h
[3] = test system: IMC-1 (IL-2 20 ng/mL); test: as above; details: 72 h
[4] = test system: KAI3 (IL-2 2.5 ng/mL); test: as above; details: 72 h
[5] = test system: KHYG-1 (IL-2 2.5 ng/mL); test: as above; details: 72 h
[6] = test system: NK-92 (IL-2 2.5 ng/mL); test: as above; details: 72 h
[7] = test system: NK-YS (IL-2 2.5 ng/mL); test: as above; details: 72 h
[8] = test system: NKL (IL-2 2.5 ng/mL); test: as above; details: 72 h
[9] = test system: SNK-6 (IL-2 2.5 ng/mL); test: as above; details: 72 h
[10] = test system: YT (IL-2 2.5 ng/mL); test: as above; details: 72 h
[11] = test system: normal primary NK cells, pool 1 (3 donors) (IL-2 2.5 ng/mL); test: as above; details: 72 h
[12] = test system: normal primary NK cells, pool 1 (3 donors), resting (IL-2 0 ng/mL); test: as above; details: 72 h
[13] = test system: normal primary NK cells, pool 2 (3 donors) (IL-2 2.5 ng/mL); test: as above; details: 72 h
[14] = test system: normal primary NK cells, pool 3 (3 donors) (IL-2 2.5 ng/mL); test: as above; details: 72 h
[15] = test system: normal NK cells expanded with K562-aAPC; test: drug sensitivity score (DSS) (DSS units); higher = more sensitive; extreme values may be limits of the assay; details: 72 h; IL-2 2.5 ng/mL
Protocol: as §1

[16] = test system: DERL-7 (IL-2 2.5 ng/mL); test: as above; details: 72 h
[17] = test system: IMC-1 (IL-2 20 ng/mL); test: as above; details: 72 h
[18] = test system: KAI3 (IL-2 2.5 ng/mL); test: as above; details: 72 h
[19] = test system: KHYG-1 (IL-2 2.5 ng/mL); test: as above; details: 72 h
[20] = test system: NK-92 (IL-2 2.5 ng/mL); test: as above; details: 72 h
[21] = test system: NK-YS (IL-2 2.5 ng/mL); test: as above; details: 72 h
[22] = test system: NKL (IL-2 2.5 ng/mL); test: as above; details: 72 h
[23] = test system: SNK-6 (IL-2 2.5 ng/mL); test: as above; details: 72 h
[24] = test system: YT (IL-2 2.5 ng/mL); test: as above; details: 72 h
[25] = test system: normal primary NK cells, pool 1 (3 donors) (IL-2 2.5 ng/mL); test: as above; details: 72 h
[26] = test system: normal primary NK cells, pool 1 (3 donors), resting (IL-2 0 ng/mL); test: as above; details: 72 h
[27] = test system: normal primary NK cells, pool 2 (3 donors) (IL-2 2.5 ng/mL); test: as above; details: 72 h
[28] = test system: normal primary NK cells, pool 3 (3 donors) (IL-2 2.5 ng/mL); test: as above; details: 72 h

## CN1CCN(c2cc(C(=O)Nc3ccc4c(c3)-c3c(c(C(N)=O)nn3-c3ccc(F)cc3)CC4)c(Cl)cn2)CC1 [PHA 408] (max concentration tested 10000 nM)
[1]; 1 nM
  percent inhibition of viability: -8.15%
[1]; 10 nM
  percent inhibition of viability: -10.8%
[1]; 100 nM
  percent inhibition of viability: -1.64%
[1]; 1000 nM
  percent inhibition of viability: 16.7%
[1]; 10000 nM
  percent inhibition of viability: 101%
[2]; 1 nM
  percent inhibition of viability: -1.3%
[2]; 10 nM
  percent inhibition of viability: 0.79%
[2]; 100 nM
  percent inhibition of viability: 2.16%
[2]; 1000 nM
  percent inhibition of viability: 31.9%
[2]; 10000 nM
  percent inhibition of viability: 101%
[3]; 1 nM
  percent inhibition of viability: -8.52%
[3]; 10 nM
  percent inhibition of viability: -6.11%
[3]; 100 nM
  percent inhibition of viability: -8.53%
[3]; 1000 nM
  percent inhibition of viability: 2.74%
[3]; 10000 nM
  percent inhibition of viability: 99.6%
[4]; 1 nM
  percent inhibition of viability: -0.05%
[4]; 10 nM
  percent inhibition of viability: 1.36%
[4]; 100 nM
  percent inhibition of viability: 9.21%
[4]; 1000 nM
  percent inhibition of viability: 50.4%
[4]; 10000 nM
  percent inhibition of viability: 101%
[5]; 1 nM
  percent inhibition of viability: -10.4%
[5]; 10 nM
  percent inhibition of viability: -8.63%
[5]; 100 nM
  percent inhibition of viability: -10.2%
[5]; 1000 nM
  percent inhibition of viability: -0.31%
[5]; 10000 nM
  percent inhibition of viability: 104%
[6]; 1 nM
  percent inhibition of viability: -21%
[6]; 10 nM
  percent inhibition of viability: -16.1%
[6]; 100 nM
  percent inhibition of viability: -4.02%
[6]; 1000 nM
  percent inhibition of viability: 12.9%
[6]; 10000 nM
  percent inhibition of viability: 102%
[7]; 1 nM
  percent inhibition of viability: -12.4%
[7]; 10 nM
  percent inhibition of viability: -7.83%
[7]; 100 nM
  percent inhibition of viability: -4.48%
[7]; 1000 nM
  percent inhibition of viability: 7.91%
[7]; 10000 nM
  percent inhibition of viability: 103%
[8]; 1 nM
  percent inhibition of viability: -18.1%
[8]; 10 nM
  percent inhibition of viability: -8.26%
[8]; 100 nM
  percent inhibition of viability: -5.06%
[8]; 1000 nM
  percent inhibition of viability: 22.7%
[8]; 10000 nM
  percent inhibition of viability: 103%
[9]; 1 nM
  percent inhibition of viability: -17.6%
[9]; 10 nM
  percent inhibition of viability: -11.2%
[9]; 100 nM
  percent inhibition of viability: 0.21%
[9]; 1000 nM
  percent inhibition of viability: 22.9%
[9]; 10000 nM
  percent inhibition of viability: 100%
[10]; 1 nM
  percent inhibition of viability: -7.69%
[10]; 10 nM
  percent inhibition of viability: -3.99%
[10]; 100 nM
  percent inhibition of viability: -2.06%
[10]; 1000 nM
  percent inhibition of viability: 15.8%
[10]; 10000 nM
  percent inhibition of viability: 104%
[11]; 1 nM
  percent inhibition of viability: -10.8%
[11]; 10 nM
  percent inhibition of viability: -7.07%
[11]; 100 nM
  percent inhibition of viability: 1.01%
[11]; 1000 nM
  percent inhibition of viability: 6.7%
[11]; 10000 nM
  percent inhibition of viability: 101%
[12]; 1 nM
  percent inhibition of viability: 18.8%
[12]; 10 nM
  percent inhibition of viability: 21.2%
[12]; 100 nM
  percent inhibition of viability: 14.8%
[12]; 1000 nM
  percent inhibition of viability: 12.5%
[12]; 10000 nM
  percent inhibition of viability: 100%
[13]; 1 nM
  percent inhibition of viability: 1.04%
[13]; 10 nM
  percent inhibition of viability: -1.49%
[13]; 100 nM
  percent inhibition of viability: 11.9%
[13]; 1000 nM
  percent inhibition of viability: 13%
[13]; 10000 nM
  percent inhibition of viability: 101%
[14]; 1 nM
  percent inhibition of viability: 1.98%
[14]; 10 nM
  percent inhibition of viability: 1.33%
[14]; 100 nM
  percent inhibition of viability: 13.2%
[14]; 1000 nM
  percent inhibition of viability: 4.36%
[14]; 10000 nM
  percent inhibition of viability: 101%
[15]
  drug sensitivity score: 8.3
[16]
  drug sensitivity score: 10.1
[17]
  drug sensitivity score: 5.9
[18]
  drug sensitivity score: 11.6
[19]
  drug sensitivity score: 5.88
[20]
  drug sensitivity score: 7.75
[21]
  drug sensitivity score: 6.95
[22]
  drug sensitivity score: 9.11
[23]
  drug sensitivity score: 9.12
[24]
  drug sensitivity score: 8.22
[25]
  drug sensitivity score: 6.64
[26]
  drug sensitivity score: 7.64
[27]
  drug sensitivity score: 7.73
[28]
  drug sensitivity score: 6.27

## COc1cc2c(Nc3ccc(Cl)c(Cl)c3F)ncnc2cc1OC[C@@H]1C[C@@H]2CN(C)C[C@@H]2C1 [XL-647] (max concentration tested 1000 nM)
[1]; 0.1 nM
  percent inhibition of viability: -7%
[1]; 1 nM
  percent inhibition of viability: -6.81%
[1]; 10 nM
  percent inhibition of viability: -2.66%
[1]; 100 nM
  percent inhibition of viability: 7.59%
[1]; 1000 nM
  percent inhibition of viability: 37.1%
[2]; 0.1 nM
  percent inhibition of viability: 2.38%
[2]; 1 nM
  percent inhibition of viability: 4.2%
[2]; 10 nM
  percent inhibition of viability: 2.43%
[2]; 100 nM
  percent inhibition of viability: 5.16%
[2]; 1000 nM
  percent inhibition of viability: 49.9%
[3]; 0.1 nM
  percent inhibition of viability: -7%
[3]; 1 nM
  percent inhibition of viability: -0.32%
[3]; 10 nM
  percent inhibition of viability: 0.43%
[3]; 100 nM
  percent inhibition of viability: -6.58%
[3]; 1000 nM
  percent inhibition of viability: 6.29%
[4]; 0.1 nM
  percent inhibition of viability: -2.77%
[4]; 1 nM
  percent inhibition of viability: -5.01%
[4]; 10 nM
  percent inhibition of viability: 0.66%
[4]; 100 nM
  percent inhibition of viability: 13.1%
[4]; 1000 nM
  percent inhibition of viability: 44%
[5]; 0.1 nM
  percent inhibition of viability: -6.79%
[5]; 1 nM
  percent inhibition of viability: -7.9%
[5]; 10 nM
  percent inhibition of viability: -4.38%
[5]; 100 nM
  percent inhibition of viability: -1%
[5]; 1000 nM
  percent inhibition of viability: 19.7%
[6]; 0.1 nM
  percent inhibition of viability: 2.48%
[6]; 1 nM
  percent inhibition of viability: -1.64%
[6]; 10 nM
  percent inhibition of viability: 0.32%
[6]; 100 nM
  percent inhibition of viability: 10.1%
[6]; 1000 nM
  percent inhibition of viability: 56.2%
[7]; 0.1 nM
  percent inhibition of viability: -8.01%
[7]; 1 nM
  percent inhibition of viability: -7.74%
[7]; 10 nM
  percent inhibition of viability: -6.62%
[7]; 100 nM
  percent inhibition of viability: 1.82%
[7]; 1000 nM
  percent inhibition of viability: 42.2%
[8]; 0.1 nM
  percent inhibition of viability: -12.1%
[8]; 1 nM
  percent inhibition of viability: -2.96%
[8]; 10 nM
  percent inhibition of viability: 0.78%
[8]; 100 nM
  percent inhibition of viability: 18.2%
[8]; 1000 nM
  percent inhibition of viability: 55.1%
[9]; 0.1 nM
  percent inhibition of viability: 17.2%
[9]; 1 nM
  percent inhibition of viability: -16.8%
[9]; 10 nM
  percent inhibition of viability: -17.2%
[9]; 100 nM
  percent inhibition of viability: -22.1%
[9]; 1000 nM
  percent inhibition of viability: 3.73%
[10]; 0.1 nM
  percent inhibition of viability: -6.35%
[10]; 1 nM
  percent inhibition of viability: -3.87%
[10]; 10 nM
  percent inhibition of viability: -2.73%
[10]; 100 nM
  percent inhibition of viability: 5.21%
[10]; 1000 nM
  percent inhibition of viability: 28.1%
[11]; 0.1 nM
  percent inhibition of viability: 0.18%
[11]; 1 nM
  percent inhibition of viability: 15.8%
[11]; 10 nM
  percent inhibition of viability: 5.17%
[11]; 100 nM
  percent inhibition of viability: 13.4%
[11]; 1000 nM
  percent inhibition of viability: 36.7%
[12]; 0.1 nM
  percent inhibition of viability: -0.45%
[12]; 1 nM
  percent inhibition of viability: 21.2%
[12]; 10 nM
  percent inhibition of viability: 8.11%
[12]; 100 nM
  percent inhibition of viability: 17.6%
[12]; 1000 nM
  percent inhibition of viability: 64.4%
[13]; 0.1 nM
  percent inhibition of viability: -4.62%
[13]; 1 nM
  percent inhibition of viability: 6.47%
[13]; 10 nM
  percent inhibition of viability: 1.95%
[13]; 100 nM
  percent inhibition of viability: -3.8%
[13]; 1000 nM
  percent inhibition of viability: 39.6%
[14]; 0.1 nM
  percent inhibition of viability: -9.94%
[14]; 1 nM
  percent inhibition of viability: 18.6%
[14]; 10 nM
  percent inhibition of viability: 6.02%
[14]; 100 nM
  percent inhibition of viability: -4.74%
[14]; 1000 nM
  percent inhibition of viability: 21.1%
[15]
  drug sensitivity score: 3.02
[16]
  drug sensitivity score: 3.48
[17]
  drug sensitivity score: 0
[18]
  drug sensitivity score: 4.2
[19]
  drug sensitivity score: 0.5
[20]
  drug sensitivity score: 4.71
[21]
  drug sensitivity score: 2.37
[22]
  drug sensitivity score: 5.6
[23]
  drug sensitivity score: 0
[24]
  drug sensitivity score: 1.99
[25]
  drug sensitivity score: 3.29
[26]
  drug sensitivity score: 5.88
[27]
  drug sensitivity score: 1.68
[28]
  drug sensitivity score: 0.47

From the supplement of paper PMC5908809
